The target of this test is T1, TRPV6 WT (Homo sapiens, UniProt Q9H1D0).
T1 construct: expressed in transfected cells; host or cells: HEK293 cells, transient transfection
T1 sequence (Q9H1D0 41-765 limits assumed): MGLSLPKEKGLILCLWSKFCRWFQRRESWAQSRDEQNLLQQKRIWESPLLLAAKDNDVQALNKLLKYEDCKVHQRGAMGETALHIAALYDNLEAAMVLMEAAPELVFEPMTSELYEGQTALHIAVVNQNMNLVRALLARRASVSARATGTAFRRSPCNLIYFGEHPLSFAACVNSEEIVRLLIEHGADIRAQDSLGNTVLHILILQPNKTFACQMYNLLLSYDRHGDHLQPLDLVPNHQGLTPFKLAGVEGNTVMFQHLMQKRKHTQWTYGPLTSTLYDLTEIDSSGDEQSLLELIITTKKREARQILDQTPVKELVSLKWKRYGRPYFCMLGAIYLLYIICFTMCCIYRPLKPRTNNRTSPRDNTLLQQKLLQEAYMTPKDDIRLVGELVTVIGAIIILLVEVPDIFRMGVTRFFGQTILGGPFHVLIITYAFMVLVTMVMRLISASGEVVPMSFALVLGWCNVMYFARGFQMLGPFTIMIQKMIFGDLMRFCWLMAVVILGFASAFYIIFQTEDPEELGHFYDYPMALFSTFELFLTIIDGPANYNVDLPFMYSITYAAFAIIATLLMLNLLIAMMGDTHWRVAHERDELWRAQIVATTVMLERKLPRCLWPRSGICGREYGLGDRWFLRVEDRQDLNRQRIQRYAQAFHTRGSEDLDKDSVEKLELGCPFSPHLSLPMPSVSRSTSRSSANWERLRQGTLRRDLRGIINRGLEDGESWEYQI
Put plainly: NFAT localization, TRPV6 WT. The format is cell-based. Particulars: HEK293 cells. The text has this: N-terminally TagRFP-labeled human TRPV6 (725 aa) was kindly provided by R. Bhardwaj and M. Hediger (University of Bern, Bern, Switzerland). This variant is translated from the first ATG codon and thus deviates from the non-ATG-initiated protein which is expressed in vivo (accession number NM_018646.6) by lacking 40 amino acids of the very N-terminus. For N-terminal labeling with EYFP, TRPV6 was cloned into pEYFP-C1 (Clontech) via EcoRI and SacII restriction sites. Mutations (F468A, R470A, F472A, K484A/Q, G488R, R492A/Q, I575A, G579A, D580A/K, H582A, W583A/F, H587A, R589A, W593A, R632A/Q, R470A, W583F) were introduced using the QuickChange XL site-directed mutagenesis kit (Stratagene, San Diego, CA, USA) and Pfu DNA Polymerase (Promega, Madison, WI, USA). pTagRFP-hTRPV6 I575A was kindly provided by the lab of M. Hediger (University of Bern, Bern, Switzerland). Forward and reverse primers for site-directed mutagenesis were synthesized by Eurofins genomics GmbH (Wien, Vienna, Austria). Intactness of the constructs in terms of sequence was confirmed by sequencing (Microsynth Austria GmbH, Wien, Vienna, Austria; Eurofins genomics GmbH, Wien, Vienna, Austria). In the present experiments, Tag-RFP-labeled constructs were implemented for NFAT screens, patch clamp measurements, and Fura-2-based Ca^2+ imaging, while for R.Geco1.2 measurements, TRPV6 WT and mutants were used which carried an EYFP label at the N-terminus (pEYFP-C1 vector) to avoid spectral overlap. R.Geco1.2 was purchased from Addgene (No. 45494), and mCherry-CRY2-5ptase OCRL was established in the lab of P. De Camilli and was derived from Addgene (No. 66836), as was CIBN-CAAX (No. 79574). Plasmids encoding for mCerulean3-CRY2-5′ ptase OCRL, YFP-CIBN-CAAX, and the mCherry-tagged PH domain were provided by K. Groschner (Medical University of Graz, Graz, Austria). […] CFP-NFAT (NFATc1, equivalent to NFAT2) was kindly provided by R. Kehlenbach (Scripps Research Institute, La Jolla, CA, USA).
After incubation, cover slips were carefully rinsed with phenol red-free DMEM supplemented with the compound and dosage corresponding to the previous incubation, which was then also present during imaging. In any case, an untreated control was included as well, using phenol red-free DMEM as imaging solution. Subcellular NFAT localization of TRPV6 expressing cells was again monitored on an Axiovert 135 inverted microscope (Zeiss, Oberkochen, Germany), as described in more detail before. Excitation of CFP relied on the 425 nm LED in combination with a CHROMA 69,008× ET ECFP/EYFP/mCherry 25mm Dia Mounted filter. Images were analyzed using Matlab2018a, differentiating between three cell populations based on the ratio of CFP emission intensity originating from the nucleus and the cytosol, similar to Schober et al. (2019).

The mark [1] stands for this setting: 5 μM cis-22a, three or four hours.

Residues, ends and D or L forms follow the SMILES beside them. *: point of attachment. Palmitoyl = CCCCCCCCCCCCCCCC(=O)*

Regarding `Cc1cccc(C2CCC(N3CCN(c4cccnc4)CC3)CC2)c1.O=C(O)C(F)(F)F` (stereo not drawn) [cis-22a], the NFAT distribution pattern entry (0.1 μM cis-22a, 2 h, 37 °C, vs DMSO about 90% nuclear, about 10% homogeneous) was “essentially preserved”. Besides, the “nuclear NFAT localization (% of cells)” value (5 μM cis-22a, 2 h, vs DMSO control 90% nuclear) stood at 22%. Also, under setting [1], the NFAT cytosolic localization entry is given as “roughly 40%” and the NFAT nuclear localization entry is reported as “only a small proportion of cells maintained nuclear localization”. Also, where the note is “10 μM cis-22a, 2 h”, the “NFAT homogeneous vs cytosolic localization” value is “the likelihood for homogeneous and cytosolic localization equalized”. Besides, under “0.1, 1, 5, 10 μM cis-22a, 2 h”, the “NFAT cytosolic localization, dose dependence” value is recorded as “only observed at the two highest concentrations tested”. For the setting “1, 5, or 10 μM cis-22a, 2 h, 37 °C”, the “NFAT nuclear localization, dose dependence” value was “continuously decreased the proportion of cells showing nuclear NFAT localization but favored a homogeneous distribution”.
Take `CCCCCCCCCCCCCCCC(=O)N[C@@H](Cc1c[nH]cn1)C(=O)N[C@@H](CCCNC(=N)N)C(=O)N[C@@H](CCC(N)=O)C(=O)N[C@@H](CCCCN)C(=O)N[C@@H](Cc1c[nH]cn1)C(=O)N[C@@H](Cc1ccccc1)C(=O)N[C@@H](CCC(=O)O)C(=O)N[C@@H](CCCCN)C(=O)N[C@@H](CCCNC(=N)N)C(=O)N[C@@H](CCCNC(=N)N)C(N)=O` [pal-PIP2 peptide] (Palmitoyl-HRQKHFEKRR-NH2): where the note is “10 μM pal-PIP2 peptide, 15–20 min or 2 h”, the NFAT localization patterns result is reported as “unable to change localization patterns”.

Values taken from article PMC10779433, “Bidirectional Allosteric Coupling between PIP2 Binding and the Pore of the Oncochannel TRPV6” (International Journal of Molecular Sciences, 2024).
